Assay results from paper PMC10000267, “ALA‐A2 Is a Novel Anticancer Peptide Inspired by Alpha‐Lactalbumin: A Discovery from a Computational Peptide Library, In Silico Anticancer Peptide Screening and In Vitro Experimental Validation” (Global Challenges, 2023).
Residues, ends and D or L forms follow the SMILES beside them.

Key:
[1] = system: A549 lung adenocarcinoma cells; settings: A549, 200 µM, 24 h; SWATH; n = 9 per group
Protocol: In brief, A549 lung adenocarcinoma cells were seeded at a density of 1 × 10^5 cells/well in a 24‐well plate. After overnight incubation, the media were changed with fresh media with or without 200 µM ALA‐A2 and incubated at 37 °C in 5%CO2 for 24 h. The cells were washed twice with PBS before lysis with Laemmli lysis buffer (62.5 mM Tris‐HCl, pH 6.8, 10% v/v glycerol, 2% w/v SDS, and 2.5% v/v beta‐mercaptoethanol). Total protein was quantified using the Bradford protein assay (Bio‐Rad, Hercules, USA). 10 µg of protein was resolved by 12% SDS–PAGE before staining with Coomassie brilliant blue G‐250, and the gel was cut into small pieces for in‐gel tryptic digestion. An amount of peptide sample corresponding to 2.5 µg of total protein was resolved in an Eksigent nanoLC ultra nanoflow high performance liquid chromatography in tandem with a TripleTOF 6600+ mass spectrometer (ABSciex, Toronto, Canada) set for information‐dependent acquisition (IDA) and DIA modes. The peptides were loaded onto a C18 column trap (Nano Trap RP‐1, 3 µm 120 Å, 10 mm × 0.075 mm; Phenomenex, CA, USA) at a flow rate of 3 µL min^−1 of 0.1% formic acid in water for 10 min to desalt and concentrate the sample, which was then resolved by HPLC using a stationary phase of a C18 analytical column (bioZen Peptide Polar C18 nanocolumn, 75 µm × 15 cm, particle size 3 µm, 120 Å; Phenomenex) with mobile phase gradients at a flow rate of 300 nL min^−1 of 3–30% acetonitrile/0.1% formic acid for 60 min, 30–40% acetonitrile/0.1% formic acid for 10 min, 40–80% acetonitrile/0.1% formic acid for 2 min, 80% acetonitrile/0.1% formic acid for 6 min, 80–3% acetonitrile/0.1% formic acid for 2 min, and 3% acetonitrile/0.1% formic acid for 25 min. The eluate was ionized and sprayed into the mass spectrometer using OptiFlow Turbo V Source (Sciex). Ion source gas 1, ion source gas 2, and curtain gas were set at 19, 0, and 25 vendor arbitrary units, respectively. The interface heater temperature was 150 °C and ion spray voltage was 3.3 kV.
Each cycle performed one time of flight (TOF) scan (250 ms accumulation time, 350–1250 m/z window with a charge state of +2) followed by IDA of the 100 most intense ions, while the minimum MS signal was set to 150 counts. The MS/MS scan was operated in high sensitivity mode with 50 ms accumulation time and 50 ppm mass tolerance. Former MS/MS candidate ions were excluded for a period of 12 s after their first occurrence to reduce the redundancy of identified peptides. DIA mode was performed in a range of 350–1500 m/z using a predefined mass window of 7‐m/z with an overlap of 1‐m/z for 157 transmissible windows. MS scan was set at 2044 cycles, where each cycle performed one TOF‐MS scan type (50 ms accumulation time across 100–1500 precursor mass range) acquired in every cycle for a total cycle time of 3.08 s. MS spectra of 100–1500 m/z were collected with an accumulation time of 96 ms per SWATH window width. Resolution for MS1 was 35 000 and SWATH‐MS2 scan was 30 000. Rolling collision energy mode with collision energy spread of 15 eV was applied. The IDA and DIA data (.wiff) were recorded by Analyst‐TF v.1.8 software (ABSciex).
A total of 18 wiff files of IDA experiments (two groups; three biological replicates per group; three technical replicates per biological sample) were combined and searched using Protein Pilot v.5.0.2.0 software (ABSciex) against the Swiss‐Prot database (UniProtKB 2022_01) Homo sapiens (20385 proteins in database) with the searching parameters as follows; alkylation on cysteine by iodoacetamide, trypsin enzymatic digestion, one missed cleavage allowed, monoisotopic mass, and 1% false discovery rate.

[2] = system: A549 cells; test: Autophagy activity assay; type: cell-based, human; settings: A549, 200 µM, 24 h; autophagosome/autophagolysosome signal normalised to nuclear signal; three biological replicates
Protocol: A549 cells (1 × 10^4 cells/well in a 96‐well plate) were treated with 200 µM ALA‐A2. Treated cells were maintained for 24 h before determining autophagy activity using an autophagy assay kit (ab139484, Abcam, Milpitas, CA). To prepare for the staining, the media was removed, and the cells were washed once with 1× assay buffer. The dual color detection solution was added to the wells and incubated for 30 min. The cells were washed and 1× assay buffer added to each well. The nuclear signal was excitation of 340 nm and […], whereas autophagosomes and autophagolysosomes were detected by excitation of 480 nm and emission of 530 nm. Autophagy activity was calculated by normalizing the autophagosome/autophagolysosome signal to the nuclear signal. Rapamycin (2 µM), a known autophagy inducer, was the positive control.^[ [33] ^] This experiment was performed in three biological replicates.

## CC(C)C[C@H](NC(=O)[C@@H](N)CCCCN)C(=O)N[C@@H](Cc1c[nH]c2ccccc12)C(=O)N[C@@H](CS)C(=O)N[C@@H](CCCCN)C(=O)N[C@@H](CO)C(=O)N[C@@H](CO)C(=O)N[C@@H](CCC(N)=O)C(=O)N[C@H](C(=O)N1CCC[C@H]1C(=O)N[C@@H](CCC(N)=O)C(=O)N[C@@H](CO)C(=O)N[C@@H](CCCNC(=N)N)C(=O)O)C(C)C [ALA‐A2] (H-KLWCKSSQVPQSR-OH)
[1]
  Fold‐change [treated/ untreated]: 40S ribosomal protein SA (RSSA, P08865): 0.25
  Fold‐change [treated/ untreated]: 60S ribosomal protein L6 (RL6, Q02878): 2.87
  Fold‐change [treated/ untreated]: Actin, cytoplasmic 2 (ACTG, P63261): 0.09
  Fold‐change [treated/ untreated]: Aldo‐keto reductase family 1 member B10 (AK1BA, O60218): 0.29
  Fold‐change [treated/ untreated]: Annexin A4 (ANXA4, P09525): 2.98
  Fold‐change [treated/ untreated]: Annexin A7 (ANXA7, P20073): 3.29
  Fold‐change [treated/ untreated]: Chloride intracellular channel protein 1 (CLIC1, O00299): 3.02
  Fold‐change [treated/ untreated]: Elongation factor 1‐alpha‐like 3 (EF1A3, Q5VTE0): 0.15
  Fold‐change [treated/ untreated]: Elongation factor 1‐gamma (EF1G, P26641): 0.31
  Fold‐change [treated/ untreated]: Endoplasmin (ENPL, P14625): 0.38
  Fold‐change [treated/ untreated]: Glyceraldehyde‐3‐phosphate dehydrogenase (G3P, P04406): 0.32
  Fold‐change [treated/ untreated]: Heat shock 70 kDa protein 8 (HSPA8, P11142): 0.25
  Fold‐change [treated/ untreated]: Heat shock protein HSP90 alpha (HSP90AA1, P07900): 0.26
  Fold‐change [treated/ untreated]: Heat shock protein HSP90 beta (HSP90AB1, P08238): 0.40
  Fold‐change [treated/ untreated]: Heterogeneous nuclear ribonucleoprotein A/B (ROAA, Q99729): 2.35
  Fold‐change [treated/ untreated]: Heterogeneous nuclear ribonucleoproteins A2/B1 (ROA2, P22626): 0.25
  Fold‐change [treated/ untreated]: Histone H1.3 (H13, P16402): 0.32
  Fold‐change [treated/ untreated]: Histone H2A type 2‐A (H2A2A, Q6FI13): 0.48
  Fold‐change [treated/ untreated]: Histone H4 (H4, P62805): 0.26
  Fold‐change [treated/ untreated]: Hsp70‐binding protein 1 (HPBP1, Q9NZL4): 0.48
  Fold‐change [treated/ untreated]: Importin‐5 (IPO5, O00410): 2.22
  Fold‐change [treated/ untreated]: Junction plakoglobin (PLAK, P14923): 2.05
  Fold‐change [treated/ untreated]: Keratin, type I cytoskeletal 18 (K1C18, P05783): 0.35
  Fold‐change [treated/ untreated]: Keratin, type I cytoskeletal 19 (K1C19, P08727): 0.34
  Fold‐change [treated/ untreated]: Leucine‐rich PPR motif‐containing protein (LPPRC, P42704): 2.06
  Fold‐change [treated/ untreated]: Neurofibromin (NF1, P21359): 0.07
  Fold‐change [treated/ untreated]: Peroxiredoxin‐1 (PRDX1, Q06830): 0.26
  Fold‐change [treated/ untreated]: Pyruvate kinase PKM (KPYM, P14618): 0.43
  Fold‐change [treated/ untreated]: RNA‐binding protein Raly (RALY, Q9UKM9): 3.57
  Fold‐change [treated/ untreated]: Serine/arginine‐rich splicing factor 3 (SRSF3, P84103): 0.33
  Fold‐change [treated/ untreated]: TAR DNA‐binding protein 43 (TADBP, Q13148): 4.07
  Fold‐change [treated/ untreated]: Threonine‐tRNA ligase 1 (SYTC, P26639): 2.61
  Fold‐change [treated/ untreated]: Transaldolase (TALDO, P37837): 0.43
  Fold‐change [treated/ untreated]: Transketolase (TKT, P29401): 0.35
  Fold‐change [treated/ untreated]: Tubulin beta chain (TBB5, P07437): 0.27
  Fold‐change [treated/ untreated]: T‐complex protein 1 subunit delta (TCPD, P50991): 2.39
  Fold‐change [treated/ untreated]: T‐complex protein 1 subunit gamma (TCPG, P49368): 0.46
  Fold‐change [treated/ untreated]: Ubiquitin‐60S ribosomal protein L40 (UBA52, P62987): 0.41
[2]
  autophagic activity: 1.5 fold of untreated cells
